In patent US20230218663A1, “COMPOSITIONS AND METHODS FOR TREATING A SARS-COV-2 INFECTION” (priority 2020, published 2023):
Several values for one entry are separate records, joined by “and”; a condition that tells them apart may be missing. Equal values may be shown once.

What was measured:
[1] = In vivo pharmacokinetics and biodistribution in SD rats; design: species or system Sprague Dawley rats
Experimental: For the measurement of detailed pharmacokinetics profiles of the optimal NAC combination with CBS identified from the above mice study, rats received a minor surgery of cannulation one day prior to experiment, with a polythene tube (i.d.0.4 mm×o.d. 0.8 mm, Harvard Apparatus, USA) in the left jugular vein, followed by an overnight recovery and fasting. Two group of rats (n=5 per group) were orally administrated with 1-mL aliquot of CBS (150 mg/kg) or CBS (150 mg/kg)+10NAC (610 mg/kg). About 200 μL of rat blood were collected via the jugular vein cannula into a heparinized centrifuge tube at 0.17, 0.33, 0.5, 1, 2, 4, 6, 8, 12, 24-hour post drug administration for respective group. Rats were allowed for free access to food 12 h after drug administrations. All the rats were sacrificed 24-hour post dosing followed by cardiac perfusion with 200-mL saline to collect major organs including spleen, liver, lung, kidney and brain for further analyses. For the digestion of tissues, a modified protocol from US EPA 3050B (USEPA, 1996) was used. Briefly, approximate 0.2˜0.3 g of the respective rat organ samples was placed in 15 ml polypropylene tubes and digested with 1 mL of 69% HNO3 at 65° C. for 16 h, while 100 μL of rat blood was digested with equal volume of 69% HNO3 at 65° C. for 16 h. After being cooled down to room temperature, the samples were diluted to 1% nitric acid to the final volume of 3 mL for further use. To eliminate matrix effect, blood and organs were also collected from untreated rats and digested under identical condition serving as blank control. Standard solutions were prepared by diluting multielement calibration standard of bismuth in the respective blank control of organ and blood, respectively. The bismuth content in each organ or blood sample was then measured by ICP-MS and calculated according to the standard curve in respective blank control. Pharmacokinetic parameters including the peak concentration (Cmax), the area under the concentration-time curve (AUC), the time reaching Cmax (Tmax) were determined through noncompartmental analysis with Phoenix WinNonlin version 6.4 (Pharsight Corporation, Mountain View, Calif., USA).

SARS-CoV-2 = assay: Golden Syrian hamster model, oral treatment (NAC studies); assay type: in vivo; details: hamster, in vivo
[2] = oral, CBS 150 mg/kg, NAC 610 mg/kg, bismuth
[3] = oral, CBS 150 mg/kg, NAC 610 mg/kg, bismuth, listed as CBS

Colloidal Bismuth Subcitrate [De-Nol]
bismuth accumulation in kidney ([1]; 24 hours after oral dose): 6839.76 ng per tissue | bismuth accumulation in lung ([1]; 24 hours after oral dose): 552.15 ng per tissue | first peak value of blood bismuth level ([1]; at around 0.5 h, single oral dose CBS 150 mg/kg): 277.69 µg/L | AUC0→24 h (±SD) [1, 2]: 2324.20 (±759.76) h · μg/L | Cmax (±SD) [1, 2]: 447.06 ng/mL | AUC0→12 h (±SD) [1, 3]: 1316 h · μg/L and 1316.94 (±474.00) h · μg/L | Tmax (±SD) [1, 3]: 4 h and 2.53(±2.01) h | adverse clinical signs and symptoms (SARS-CoV-2): mildly mitigated | pulmonary viral load compared with vehicle group (SARS-CoV-2): No statistically significant difference | change in lung IL-6 level versus vehicle group (SARS-CoV-2; po): lowered but statistically non-significant change
